# Source: ChEMBL document CHEMBL1201862, “PubChem BioAssay data set” (2004)
# Active and inactive are the calls of the source. Cut-off read from the data, not from the text of the source: actives have a measured IC50 and inactives only a lower limit.
# Target: Envelope glycoprotein gp160 (Human immunodeficiency virus 1, UniProt Q6QLK5)
# Assay: inhibitors of HIV fusion peptide binding, primary screen, biochemical, uHTS, fluorescence dequenching (AID 1986)
# Envelope glycoprotein gp160, sequence (Q6QLK5 whole entry, the tested form may be a part): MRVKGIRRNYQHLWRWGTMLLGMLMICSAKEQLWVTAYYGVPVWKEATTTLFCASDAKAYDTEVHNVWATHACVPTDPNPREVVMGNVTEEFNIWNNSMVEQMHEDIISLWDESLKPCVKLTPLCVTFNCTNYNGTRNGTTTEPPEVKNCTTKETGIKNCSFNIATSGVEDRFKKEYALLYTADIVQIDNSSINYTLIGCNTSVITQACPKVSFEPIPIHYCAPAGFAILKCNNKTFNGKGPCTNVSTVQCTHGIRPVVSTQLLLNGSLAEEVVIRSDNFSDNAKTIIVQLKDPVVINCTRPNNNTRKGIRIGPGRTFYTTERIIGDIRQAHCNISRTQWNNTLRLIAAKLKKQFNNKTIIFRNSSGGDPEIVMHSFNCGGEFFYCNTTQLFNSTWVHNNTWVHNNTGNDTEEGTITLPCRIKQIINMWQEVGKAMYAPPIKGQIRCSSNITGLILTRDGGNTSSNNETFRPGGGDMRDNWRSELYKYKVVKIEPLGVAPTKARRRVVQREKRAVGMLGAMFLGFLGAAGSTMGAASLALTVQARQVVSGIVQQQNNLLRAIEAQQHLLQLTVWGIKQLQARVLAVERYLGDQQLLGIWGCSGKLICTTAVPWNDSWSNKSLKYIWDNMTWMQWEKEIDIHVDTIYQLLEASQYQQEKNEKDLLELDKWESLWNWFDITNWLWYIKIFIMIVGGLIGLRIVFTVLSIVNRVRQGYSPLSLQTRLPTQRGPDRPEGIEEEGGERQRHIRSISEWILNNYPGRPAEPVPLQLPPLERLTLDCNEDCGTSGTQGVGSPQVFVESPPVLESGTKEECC
row,Compound,IC50
1,CCCOc1cccc(C2C(C(=O)c3cc4ccccc4o3)=C(O)C(=O)N2c2cc(C)on2)c1 (centres undefined),16.9 µM (active)
2,O=C(CCN1C(=O)/C(=C/c2ccco2)SC1=S)Nc1ccc(C(=O)O)c(O)c1,14.7 µM (active)
3,O=C(O)CN1C(=O)/C(=C\c2cc(Br)ccc2OCc2ccccc2Cl)SC1=S,14.3 µM (active)
4,O=C(O)CN1C(=O)/C(=C\c2cc(Br)ccc2OCc2ccc(F)cc2)SC1=S,10.7 µM (active)
